The values below come from paper PMC5991599, “Anti‐tumor efficacy of a novel CLK inhibitor via targeting RNA splicing and MYC‐dependent vulnerability” (EMBO Molecular Medicine, 2018).

Test [1] deals with MV-4-11 AML cell line xenografts. In words: Efficacy study in MV-4-11 xenograft model. To be noted: 37.5 and 50 mg/kg. The test is classed as in vivo, Balb/c nude mice. Here is the method: MDA‐MB‐468 (5 × 10^6), NCI‐H1048 (5 × 10^6), or MV‐4‐11 (2 × 10^6) cells in Matrigel were subcutaneously inoculated into the left flanks of Balb/c nude mice (7‐ to 8‐week‐old females). When xenografted tumors grew to a sufficient volume, the tumor diameter was measured and its volume was calculated as follows:
Tumor volume=long diameter×short diameter×short diameter×(1/2)
Mice having a tumor of size approximately 200 mm^3 were used in efficacy or in vivo pharmacodynamics studies. T‐025 was dissolved in 0.5% methylcellulose solution. For the efficacy study, after randomized grouping, mice were treated with T‐025 twice daily once or twice weekly for 2 or 3 weeks. The mouse tumor volume and body weight were measured every 2–3 days.

A further test deals with DYRK1B (Homo sapiens, UniProt Q9Y463). In words: Enzymatic assay. The class given is biochemical. The conditions noted are these: read-out: IC50 (nmol/L) DYRK1B. An excerpt: (§1) Appendix Supplemental Methods
For the next test, the target named is CLK1 (Homo sapiens, UniProt P49759). The test can be described thus: Enzymatic assay. The test is classed as biochemical. The conditions noted are these: read-out: IC50 (nmol/L) CLK1.
Text: as §1

A further test concerns the target CLK2 (Homo sapiens, UniProt P49760). In words: Enzymatic assay. The test is classed as biochemical. To be noted: read-out: IC50 (nmol/L) CLK2.
Text: as §1

Another test deals with CLK3 (Homo sapiens, UniProt P49761). In words: Enzymatic assay. The class given is biochemical. The conditions noted are these: read-out: IC50 (nmol/L) CLK3.
Text: as §1

A further test concerns DAUDI. In words: Panel of growth inhibition assays (OncoPanel 240). To be noted: Homo sapiens, 72 h, lymphoma, read-out: IC50 (Oncopanel, cell count). The class given is cell-based. How it is done: (§2) The KINOMEScan‐based kinase selectivity assay was performed at the DiscoverX Corporation (Fremont, CA, USA). The panel of growth inhibition assay and subsequent bioinformatics analysis (Fig EV1) were performed at Eurofins Inc. (St. Charles, MO, USA), using OncoPanel 240 or 60. Details of the procedures of cell proliferation assay, caspase‐3/7 activity assay, immunoblotting, and immunohistochemistry are described in Appendix Supplementary Methods.
(§3) Panel of growth inhibition assay and subsequence bioinformatics analysis (at […]
(§4) A growth inhibition assay panel and subsequent bioinformatics analysis were performed at Eurofins Inc. (MO, U.S.A.) by utilizing Oncopanel240 or 60.
(§5) According to the study reports from Eurofins Inc., cells were seeded into 384 well plates at a single cell density in standardized media. After 24 hours, the test compounds were added and the plate was incubated continuously for 72 hours. Cells were then fixed and stained to visualize nuclei. The number of nuclei was counted and normalized.
(§6) Cellular response parameters were calculated using nonlinear regression to a sigmoidal single-site dose response model and the IC50 value of each cell line was calculated.
(§7) Genomic features were binned into six distinct categories, each of which was considered to be a “biomarker-positive” grouping: Mutated (non-synonymous, coding, and non-coding mutations), Amplified, Deleted, Overexpressed, Mutated or amplified (gain-of-function), and Mutated or deleted (loss-of-function). Two orthogonal significance tests were performed on each genomic feature as follows.
(§8) Student’s t-test: For each genomic feature within each of the six above categories, IC50 cell count values for biomarker-positive and biomarker-negative groups were […]

The subject of a further test is L428. In words: Panel of growth inhibition assays (OncoPanel 240). The class given is cell-based. To be noted: Homo sapiens, L-428; 72 h; lymphoma; read-out: IC50 (Oncopanel, cell count). Here is the method:
as §2, §3, §4, §5, §6, §7, §8

The subject of the next test is K562. The test can be described thus: Panel of growth inhibition assays (OncoPanel 240). The conditions noted are these: Homo sapiens, 72 h, leukemia, read-out: IC50 (Oncopanel, cell count). The test is classed as cell-based. Here is the method:
as §2, §3, §4, §5, §6, §7, §8

The test system of a further test is EM2. The test can be described thus: Panel of growth inhibition assays (OncoPanel 240). To be noted: Homo sapiens, EM-2; 72 h; leukemia; read-out: IC50 (Oncopanel, cell count). The class given is cell-based. Here is the method: as §2, §3, §4, §5, §6, §7, §8
In the next test the test system is 240 cancer cell lines. The test can be described thus: Panel of growth inhibition assays (OncoPanel 240). The conditions noted are these: hematological and solid cancer cell lines; 72 h; read-out: IC50 values, anti-proliferative activity. The test is classed as cell-based. How it is done:
as §2, §3, §4, §5, §6, §7, §8

The next test relates to MOLT16. In words: Panel of growth inhibition assays (OncoPanel 240). The conditions noted are these: Homo sapiens, MOLT-16; 72 h; leukemia; read-out: IC50 (Oncopanel, cell count). The class given is cell-based. Here is the method: as §2, §3, §4, §5, §6, §7, §8
The test system of a further test is U266B1. The test can be described thus: Panel of growth inhibition assays (OncoPanel 240). The test is classed as cell-based. To be noted: 72 h; myeloma; read-out: IC50 (Oncopanel, cell count). Here is the method: as §2, §3, §4, §5, §6, §7, §8
Another test relates to 786-O. The test can be described thus: Panel of growth inhibition assays (OncoPanel 240). The test is classed as cell-based. To be noted: Homo sapiens, 786-0; 72 h; kidney cancer; read-out: IC50 (nmol/L) Oncopanel. Here is the method:
as §2, §3, §4, §5, §6, §7, §8

A further test deals with ST486. The test can be described thus: Panel of growth inhibition assays (OncoPanel 240). The test is classed as cell-based. The conditions noted are these: Homo sapiens, 72 h, lymphoma, read-out: IC50 (Oncopanel, cell count). How it is done: as §2, §3, §4, §5, §6, §7, §8
A further test concerns CCRF-CEM. In words: Panel of growth inhibition assays (OncoPanel 240). The class given is cell-based. To be noted: Homo sapiens, 72 h, leukemia, read-out: IC50 (nmol/L) Cell count. Here is the method:
as §2, §3, §4, §5, §6, §7, §8

The subject of the next test is DOHH2. The test can be described thus: Panel of growth inhibition assays (OncoPanel 240). The class given is cell-based. The conditions noted are these: Homo sapiens, DOHH-2; 72 h; lymphoma; read-out: IC50 (Oncopanel, cell count). How it is done: as §2, §3, §4, §5, §6, §7, §8
Another test has as its system COLO320HSR. The test can be described thus: Panel of growth inhibition assays (OncoPanel 240). To be noted: Homo sapiens, COLO-320-HSR; 72 h; colorectal cancer; read-out: IC50 (nmol/L) Oncopanel. The class given is cell-based. How it is done:
as §2, §3, §4, §5, §6, §7, §8

Another test deals with MV-4-11. The test can be described thus: Panel of growth inhibition assays (OncoPanel 240). The test is classed as cell-based. To be noted: Homo sapiens, MV4-11; 72 h; leukemia; read-out: IC50 (Oncopanel, cell count). Here is the method: as §2, §3, §4, §5, §6, §7, §8
The next test concerns MEG01. The test can be described thus: Panel of growth inhibition assays (OncoPanel 240). The class given is cell-based. The conditions noted are these: Homo sapiens, MEG-01; 72 h; leukemia; read-out: IC50 (Oncopanel, cell count). How it is done:
as §2, §3, §4, §5, §6, §7, §8

A further test deals with MDA-MB-468. In words: Panel of growth inhibition assays (OncoPanel 240). The test is classed as cell-based. The conditions noted are these: Homo sapiens, 72 h, breast cancer, read-out: IC50 (nmol/L) Oncopanel. How it is done:
as §2, §3, §4, §5, §6, §7, §8

A further test deals with NALM6. The test can be described thus: Panel of growth inhibition assays (OncoPanel 240). To be noted: Homo sapiens, NALM-6; 72 h; leukemia; read-out: IC50 (Oncopanel, cell count). The test is classed as cell-based. How it is done: as §2, §3, §4, §5, §6, §7, §8

DYRK1B, sequence (Q9Y463 whole entry): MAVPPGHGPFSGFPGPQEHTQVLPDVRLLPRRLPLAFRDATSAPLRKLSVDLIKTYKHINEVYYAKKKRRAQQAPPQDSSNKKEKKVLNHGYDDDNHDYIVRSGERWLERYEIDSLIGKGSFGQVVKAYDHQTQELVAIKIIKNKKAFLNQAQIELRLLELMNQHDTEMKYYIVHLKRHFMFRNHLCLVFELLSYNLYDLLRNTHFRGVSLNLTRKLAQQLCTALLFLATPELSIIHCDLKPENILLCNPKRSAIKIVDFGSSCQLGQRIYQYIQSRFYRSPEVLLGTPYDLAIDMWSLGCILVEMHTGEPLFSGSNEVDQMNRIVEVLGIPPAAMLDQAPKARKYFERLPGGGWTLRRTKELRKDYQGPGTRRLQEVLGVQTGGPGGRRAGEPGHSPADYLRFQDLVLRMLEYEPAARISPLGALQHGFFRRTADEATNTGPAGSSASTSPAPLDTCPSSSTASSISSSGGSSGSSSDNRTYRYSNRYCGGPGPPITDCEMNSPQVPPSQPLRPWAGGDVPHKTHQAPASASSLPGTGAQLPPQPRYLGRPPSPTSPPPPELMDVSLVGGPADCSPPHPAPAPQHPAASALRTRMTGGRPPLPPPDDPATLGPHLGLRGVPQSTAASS
CLK3, sequence (P49761 whole entry): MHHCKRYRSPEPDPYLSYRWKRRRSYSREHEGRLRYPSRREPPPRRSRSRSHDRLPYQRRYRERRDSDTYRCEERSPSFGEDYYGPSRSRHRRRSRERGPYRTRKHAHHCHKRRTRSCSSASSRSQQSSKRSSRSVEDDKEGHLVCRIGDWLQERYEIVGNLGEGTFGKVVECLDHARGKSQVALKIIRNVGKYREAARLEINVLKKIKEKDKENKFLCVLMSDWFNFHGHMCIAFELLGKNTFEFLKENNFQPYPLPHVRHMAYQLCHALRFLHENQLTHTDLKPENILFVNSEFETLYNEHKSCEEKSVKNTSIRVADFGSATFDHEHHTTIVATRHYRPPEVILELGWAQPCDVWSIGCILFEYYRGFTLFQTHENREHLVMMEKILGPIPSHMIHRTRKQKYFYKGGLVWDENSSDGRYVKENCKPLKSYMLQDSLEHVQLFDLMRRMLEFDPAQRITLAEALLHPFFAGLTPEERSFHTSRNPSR
CLK2, sequence (P49760 whole entry): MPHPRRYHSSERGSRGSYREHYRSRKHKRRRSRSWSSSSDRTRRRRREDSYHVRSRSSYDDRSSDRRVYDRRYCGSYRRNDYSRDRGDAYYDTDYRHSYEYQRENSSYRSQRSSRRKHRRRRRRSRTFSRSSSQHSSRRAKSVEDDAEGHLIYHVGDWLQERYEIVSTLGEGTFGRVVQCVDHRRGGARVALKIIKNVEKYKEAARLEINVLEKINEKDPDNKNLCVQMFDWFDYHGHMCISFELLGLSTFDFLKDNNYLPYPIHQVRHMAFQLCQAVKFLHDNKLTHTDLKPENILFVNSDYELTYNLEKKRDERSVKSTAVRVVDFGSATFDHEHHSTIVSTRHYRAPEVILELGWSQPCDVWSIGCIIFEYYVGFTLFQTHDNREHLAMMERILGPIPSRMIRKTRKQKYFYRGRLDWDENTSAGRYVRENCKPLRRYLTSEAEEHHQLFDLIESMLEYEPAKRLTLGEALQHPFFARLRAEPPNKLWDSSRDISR
CLK1, sequence (P49759 whole entry): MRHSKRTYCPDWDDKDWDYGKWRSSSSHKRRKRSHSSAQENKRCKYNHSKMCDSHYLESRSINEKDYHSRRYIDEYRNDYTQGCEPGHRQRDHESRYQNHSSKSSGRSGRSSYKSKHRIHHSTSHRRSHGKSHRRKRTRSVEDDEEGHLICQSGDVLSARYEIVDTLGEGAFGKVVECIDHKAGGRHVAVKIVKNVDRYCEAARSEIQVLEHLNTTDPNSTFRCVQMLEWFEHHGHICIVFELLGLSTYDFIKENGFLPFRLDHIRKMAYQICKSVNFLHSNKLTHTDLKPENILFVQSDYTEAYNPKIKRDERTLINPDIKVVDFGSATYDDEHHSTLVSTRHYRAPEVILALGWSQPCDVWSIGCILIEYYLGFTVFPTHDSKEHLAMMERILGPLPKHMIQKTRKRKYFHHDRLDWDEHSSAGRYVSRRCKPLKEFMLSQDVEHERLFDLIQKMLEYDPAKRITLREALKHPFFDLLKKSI

As to `CNc1nc(NCc2ncccn2)c2c(-c3ccc4ncccc4c3)c[nH]c2n1` [T-025, N ^2‐methyl‐N ^4‐[pyrimidin‐2‐ylmethyl]‐5‐[quinolin‐6‐yl]‐7H‐pyrrolo[2,3‐d]pyrimidine‐2,4‐diamine], the “anti-tumor efficacy, tumor volume” value in [1] is listed as “profound anti‐tumor efficacies”. In addition, the IC50 is 1.5 nmol/L at DYRK1B; 0.93 nmol/L on CLK1; 1 nmol/L on CLK2; 14 nmol/L at CLK3; 52.5 nM with DAUDI; 116 nM in the test with L428. Also, the IC50 is 129 nM in the test with K562; 104 nM in the test with EM2; 30 to 300 nM in the test with 240 cancer cell lines; 20.6 nM in the test on MOLT16; 35.1 nM with U266B1; 239 nmol/L in the test on 786-O. For the same molecule, the IC50 in the test on ST486 is 57.1 nM; in the test on CCRF-CEM, 45.9 nmol/L; with DOHH2 it was 39.5 nM; in the test on COLO320HSR, 30.1 nmol/L; in the test on MV-4-11, 30.1 nM; with MEG01, 305 nM. Moreover, the IC50 worked out at 47.1 nmol/L with MDA-MB-468 and 52.6 nM in the test on NALM6.
